Results as given in patent US7193085B2, “Acid Red 82 in mixtures” (Lanxess Deutschland GmbH, priority 2002, dated 2007).

Test: Solubility of the dye
Format: physicochemical

solubility compared with Acid Red 82: less than that of Acid Red 82
Structure (SMILES): Cc1ccc(Nc2ccc3c4c(cc(=O)n3C)-c3ccccc3C(=O)c24)c(S(=O)(=O)[O-])c1.[Na+] [Acid Red 80, C. I. Acid Red 80]
